In assay [1] the test system is A. baumannii. Description: Antibiotic susceptibility (MIC, Sensititre Trays) with rBPI21 poloxamer formulations. Type of assay: cell-based. The note with it: for MIC: Acinetobacter baumannii, read-out: Minimum Inhibitory Concentration.
The subject of assay [2] is A. baumannii. Briefly: Bactericidal activity in serum, broth or water, CFU after 4 hours (Example 2). The format is cell-based. Here is the method:
The bactericidal activity of therapeutic compositions comprising BPI protein product and either poloxamer 333 (PLURONIC P103, BASF Wyandotte Corp.) or heat-treated PLURONIC P103, was evaluated against the clinical isolates of Example 1. Therapeutic compositions comprising 160 μg/mL rBPI21 and varying concentrations of either PLURONIC P103 or heat-treated PLURONIC P103 were formulated by diluting a 2 mg/mL solution of “non-formulated” rBPI21 (in buffer comprising 5 mM sodium citrate and 150 mM NaCl, without any surfactants) with the appropriate amounts of PLURONIC P103 or heat-treated PLURONIC P103 solutions. A “formulated” rBPI21 solution containing 2 mg/mL rBPI21, 0.2% poloxamer 188 (PLURONIC F68, BASF Wyandotte Corp.), 0.002% TWEEN 80 (polysorbate 80, ICI Americas, Wilmington, Del.), 5 mM sodium citrate and 150 mM NaCl was also tested for comparison. Poloxamer control solutions containing only 0.1% PLURONIC P103 or 0.1% heat-treated PLURONIC P103, and no rBPI21, were also prepared.
A 0.1% (w/v) solution of PLURONIC P103 was prepared by stirring the PLURONIC P103 in deionized water until dissolved and filtering the solution through a […] cellulose acetate polystyrene filter unit (Corning Inc., Corning, N.Y.). […]
The bacteria to be used in the assays were grown on tryptic soy agar (TSA) plates (Remel, Catalog #01-920, Lenexa, Kans.) for 24 hours. […] A bacterial stock emulsion was prepared by emulsifying bacterial colonies in sterile deionized water to approximately 2.2 to 3.8×10^8 colony forming units (CFU)/mL as measured by a Microscan® Turbidity Meter (Dade Microscan, West Sacramento, Calif.), and diluting further by 1:10 in water. […] Following incubation, the remaining colony forming units (CFU) in each well were counted at a 10^−2 dilution by plating 10 μL from each well onto TSA plates. The TSA plates were incubated at 37° C. for 24 hours and the number of bacterial colonies were visually counted. […]

The mark [3] stands for this setting: CSMHB, 16 μg/mL rBPI21 with F68.
Setting [4] is: CSMHB, 16 μg/mL rBPI21 with P103.
The mark [5] stands for this setting: CSMHB, 16 μg/mL rBPI21 with P104.
Where [6] appears, read: CSMHB, 16 μg/mL rBPI21 with P105.
The mark [7] stands for this setting: CSMHB, 16 μg/mL rBPI21 with P123.
Where [8] appears, read: Serum, 16 μg/mL rBPI21 with F68.
[9] abbreviates: Serum, 16 μg/mL rBPI21 with P103.
The mark [10] stands for this setting: Serum, 16 μg/mL rBPI21 with P104.
Where [11] appears, read: Serum, 16 μg/mL rBPI21 with P105.
[12] abbreviates: Serum, 16 μg/mL rBPI21 with P123.

Converted amounts (≈) assume the structure as drawn. Read-outs that look alike come from different tables or passages of the source.

Take `O=C(N[C@H](CO)[C@H](O)c1ccc([N+](=O)[O-])cc1)C(Cl)Cl` [Chloramphenicol]: the MIC in the assay with A. baumannii [1] (setting [3]) was 1 µg/mL (≈ 3.09 µM); in the assay on A. baumannii [1] (setting [4]) it was below 0.5 µg/mL; with A. baumannii [1] (setting [5]) it was 1 µg/mL (≈ 3.09 µM); in the assay with A. baumannii [1] (setting [6]) it was below 0.5 µg/mL; with A. baumannii [1] (setting [7]) it was below 0.5 µg/mL; with A. baumannii [1] (CSMHB, Control (no BPI)) it was above 4 µg/mL. The MIC with A. baumannii [1] (setting [8]) is above 4 µg/mL; with A. baumannii [1] (setting [9]) it was 2 µg/mL (≈ 6.19 µM); in the assay on A. baumannii [1] (setting [10]), 4 µg/mL (≈ 12.4 µM); in the assay on A. baumannii [1] (setting [11]), above 4 µg/mL; in the assay on A. baumannii [1] (setting [12]) it was above 4 µg/mL; with A. baumannii [1] (Serum, Control (no BPI)), above 4 µg/mL. The “susceptibility interpretation of MIC (superscript)” value (from here on “susceptibility interpretation”) was “S” in the assay with A. baumannii [1] (setting [3]); “S” with A. baumannii [1] (setting [4]); “S” in the assay with A. baumannii [1] (setting [5]); “S” in the assay with A. baumannii [1] (setting [6]); “S” with A. baumannii [1] (setting [7]); “R” in the assay with A. baumannii [1] (CSMHB, Control (no BPI)). Also, the “susceptibility interpretation” value is recorded as “R” in the assay with A. baumannii [1] (setting [8]); “S” in the assay with A. baumannii [1] (setting [9]); “R” in the assay with A. baumannii [1] (setting [10]); “R” with A. baumannii [1] (setting [11]); “R” in the assay on A. baumannii [1] (setting [12]); “R” in the assay with A. baumannii [1] (Serum, Control (no BPI)).
As for `CO/N=C(\C(=O)N[C@@H]1C(=O)N2C(C(=O)O)=C(CSc3nc(=O)c(=O)[nH]n3C)CS[C@H]12)c1csc(N)n1` [Ceftriaxone], the MIC with A. baumannii [1] (setting [3]) was above 128 µg/mL; in the assay with A. baumannii [1] (setting [4]), below 1 µg/mL; in the assay with A. baumannii [1] (setting [5]), below 1 µg/mL; in the assay on A. baumannii [1] (setting [6]) it was below 1 µg/mL; with A. baumannii [1] (setting [7]) it was below 1 µg/mL; in the assay with A. baumannii [1] (CSMHB, Control (no BPI)), 128 µg/mL (≈ 231 µM). For the same molecule, the MIC with A. baumannii [1] (setting [8]) was above 128 µg/mL; with A. baumannii [1] (setting [9]), above 128 µg/mL; in the assay on A. baumannii [1] (setting [10]), above 128 µg/mL; with A. baumannii [1] (setting [11]) it was above 128 µg/mL; in the assay on A. baumannii [1] (setting [12]), above 128 µg/mL; in the assay with A. baumannii [1] (Serum, Control (no BPI)), above 128 µg/mL. In addition, the “susceptibility interpretation” value with A. baumannii [1] (setting [3]) is recorded as “R”; with A. baumannii [1] (setting [4]), “S”; in the assay on A. baumannii [1] (setting [5]), “S”; in the assay with A. baumannii [1] (setting [6]) it was “S”; with A. baumannii [1] (setting [7]) it was “S”; in the assay on A. baumannii [1] (CSMHB, Control (no BPI)), “R”. The “susceptibility interpretation” value in the assay on A. baumannii [1] (setting [8]) is listed as “R”; in the assay on A. baumannii [1] (setting [9]), “R”; in the assay with A. baumannii [1] (setting [10]) it was “R”; in the assay on A. baumannii [1] (setting [11]) it was “R”; with A. baumannii [1] (setting [12]), “R”; with A. baumannii [1] (Serum, Control (no BPI)), “R”.
For the molecule `CC(C)(O/N=C(\C(=O)N[C@@H]1C(=O)N2C(C(=O)[O-])=C(C[n+]3ccccc3)CS[C@H]12)c1csc(N)n1)C(=O)O` [Ceftazidime], the MIC with A. baumannii [1] (setting [3]) is 32 µg/mL (≈ 58.5 µM); in the assay with A. baumannii [1] (setting [4]), below 4 µg/mL; in the assay on A. baumannii [1] (setting [5]), below 4 µg/mL; in the assay on A. baumannii [1] (setting [6]), below 4 µg/mL; with A. baumannii [1] (setting [7]), below 4 µg/mL; in the assay on A. baumannii [1] (CSMHB, Control (no BPI)) it was 16 µg/mL (≈ 29.3 µM). The MIC with A. baumannii [1] (setting [8]) was 32 µg/mL (≈ 58.5 µM); in the assay with A. baumannii [1] (setting [9]), 16 µg/mL (≈ 29.3 µM); with A. baumannii [1] (setting [10]), 16 µg/mL (≈ 29.3 µM); with A. baumannii [1] (setting [11]), 16 µg/mL (≈ 29.3 µM); in the assay with A. baumannii [1] (setting [12]), 16 µg/mL (≈ 29.3 µM); in the assay on A. baumannii [1] (Serum, Control (no BPI)) it was above 32 µg/mL. Besides, the “susceptibility interpretation” value in the assay with A. baumannii [1] (setting [3]) is “R”; in the assay with A. baumannii [1] (setting [4]), “S”; in the assay with A. baumannii [1] (setting [5]) it was “S”; in the assay with A. baumannii [1] (setting [6]), “S”; in the assay on A. baumannii [1] (setting [7]) it was “S”; in the assay on A. baumannii [1] (CSMHB, Control (no BPI)) it was “I”. In addition, the “susceptibility interpretation” value with A. baumannii [1] (setting [8]) is recorded as “R”; with A. baumannii [1] (setting [9]), “I”; in the assay on A. baumannii [1] (setting [10]) it was “I”; in the assay on A. baumannii [1] (setting [11]), “I”; in the assay with A. baumannii [1] (setting [12]), “I”; in the assay on A. baumannii [1] (Serum, Control (no BPI)), “R”.

B1: rBPI21: expression product of DNA encoding amino acid 1 to approximately 193 or 199 of BPI holoprotein, cysteine 132 substituted with alanine (protein, UniProt P17213 32-224, looked up, variant C132A)
chain: VNPGVVVRISQKGLDYASQQGTAALQKELKRIKIPDYSDSFKIKHLGKGHYSFYSMDIREFQLPSSQISMVPNVGLKFSISNANIKISGKWKAQKRFLKMSGNFDLSIEGMSISADLKLGSNPTSGKPTITASSCSSHINSVHVHISKSKVGWLIQLFHKKIESALRNKMNSQVCEKVTNSVSSELQPYFQTL
B1: the “colony forming units after 4 hours” value in the assay with A. baumannii [2] (Broth, bacteria only >5000) is >5000 100's of CFUs; with A. baumannii [2] (Serum, bacteria only >2000) it was >2000 100's of CFUs; in the assay on A. baumannii [2] (Water, bacteria only >2000) it was 519 100's of CFUs.
